Experimental data reported in ChEMBL document CHEMBL4616630, “Amide-Iminoate Isomerism in Antineuroinflammatory Isoquinoline Alkaloids from Stephania cepharantha” (J Nat Prod, 2020).

What follows are molecules tested on BV-2 (assay: Ant-inflammatory LPS-induced mouse BV2 cells assessed as reduction in NO production after 24 hrs by Griess reagent based assay). Conditions: BV-2, 24 h.
Format: functional, cell-based

| Compound | IC50 [µM] |
| --- | --- |
| COC1=C2[C@H]3Cc4ccc(OC)c(O)c4[C@]2(CCN3C=O)C[C@H](O)[C@@H]1O | 37.3 |
| COC1=C2[C@H]3Cc4ccc(OC)c(O)c4[C@]2(CCN3C=O)C[C@H](O)[C@@H]1OC(C)=O | > 100 |
| COc1cc2c3c(c1OC)C1(C=CC(=O)C=C1)C[C@H]3N(C=O)CC2 | > 100 |
| COc1ccc2cc1Oc1ccc(cc1)C[C@H]1c3c(cc4c(c3Oc3cc5c(cc3OC)CCN(C=O)[C@@H]5C2)OCO4)CCN1C | 12 |
| O=CN1CCc2cc3c(c4c2[C@H]1Cc1cc(O)ccc1-4)OCO3 | > 100 |
| COC1=C2[C@H]3Cc4ccc(OC)c(O)c4[C@]2(CCN3C=O)C[C@H](OC(C)=O)[C@@H]1O | > 100 |
| COC1=C2[C@H]3Cc4ccc(OC)c(O)c4[C@]2(CCN3C=O)C[C@H](OC(C)=O)[C@@H]1OC(C)=O | > 100 |
| COc1ccc2cc1Oc1ccc(cc1)C[C@H]1c3cc(c(OC)cc3CCN1C=O)Oc1c(OC)c(OC)cc3c1[C@@H](C2)N(C)CC3 | 12.6 |
| CN(C)c1ccc(O)c2c1C[C@H]1C[C@H]3[C@H](N(C)C)C(O)=C(C(N)=O)C(=O)[C@@]3(O)C(O)=C1C2=O [MINOCYCLINE] | 17.5 |
